# In patent US8940716B2, “Bicyclic heteroaryl compounds as GPR119 modulators” (Bristol-Myers Squibb Company, priority 2010, dated 2015):
# Biological target: T1, human-mouse chimeric GPR119 (Homo sapiens, UniProt Q8TDV5, A235T/C313R/C323Y/E253K/F304I/F307L/G211A/G245S/H255C/K284R/L224V/L258Q/L288Q/L301F/P218V/P318T/Q252H/R262K/S214P/S219N/S228A/S309P/S322A/T217S/T239S/V227I/V300F)
# T1 construct: the first 198 amino acids of human GPR119; the C-terminal 137 amino acids of the mouse receptor; expressed in transfected cells
# T1 sequence (Q8TDV5 with tags, fused parts or gaps G211A/S214P/T217S/P218V/S219N/L224V/V227I/S228A/A235T/T239S/G245S/Q252H/E253K/H255C/L258Q/R262K/K284R/L288Q/V300F/L301F/F304I/F307L/S309P/C313R/P318T/S322A/C323Y): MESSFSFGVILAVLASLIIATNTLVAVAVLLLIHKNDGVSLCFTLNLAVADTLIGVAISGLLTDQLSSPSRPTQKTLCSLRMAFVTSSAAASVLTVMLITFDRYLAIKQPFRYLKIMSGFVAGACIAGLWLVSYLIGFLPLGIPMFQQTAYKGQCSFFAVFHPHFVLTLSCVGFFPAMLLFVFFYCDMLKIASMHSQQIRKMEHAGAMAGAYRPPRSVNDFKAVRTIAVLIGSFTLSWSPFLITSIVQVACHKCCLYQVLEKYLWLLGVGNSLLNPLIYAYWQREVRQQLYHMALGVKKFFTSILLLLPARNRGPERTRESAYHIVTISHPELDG
# Assay: Tet-inducible cAMP assay
# Assay type: cell-based
# Settings: not given
# Method: The in vitro modulation of recombinant human GPR119 was determined as follows.
# A human-mouse chimeric GPR119 expression construct encoding 3 copies of the FLAG epitope tag, the first 198 amino acids of human GPR119 and the C-terminal 137 amino acids of the mouse receptor was cloned into a tetracycline inducible vector pcDNA5/FRT/TO (Invitrogen #V6520-20), which includes a hygromycin-resistance marker. Tightly controlled receptor expression was achieved by stable integration of this construct into the genome of a specific host cell line, Flp-In-T-Rex-HEK293, expressing the tetracycline repressor (Invitrogen). Once a stable hygromycin-resistant cell line was generated, the cells were maintained at 37° C. in a humidified 5% CO2 atmosphere in culture medium consisting of Dulbecco's modified Eagle's medium (DMEM; Invitrogen #11960) supplemented with 2 mM L-glutamine, 10% fetal bovine serum, 200 μg/ml hygromycin B, and 15 μg/ml blasticidin.
# Forty-eight hours prior to the cAMP accumulation assay, cells stably expressing the chimeric human/mouse GPR119 construct were seeded at a density of 4×10^3 cells/well in 384 well poly-D-lysine coated solid white plates (BD #35-6661) and grown at 37° C. in a humidified 5% CO2 atmosphere in culture medium supplemented with 1 μg/ml tetracycline to induce expression of the receptor. On the day of the assay, medium was removed and cells were incubated for 50 min. at 37° C. in a humidified 5% CO2 atmosphere in 20 μl/well of assay buffer (phosphate-buffered saline with Ca^2+ and Mg^2+, 12 mM glucose, 0.1 mM isobutyl-methyl-xanthine, 0.1% fatty-acid free bovine serum albumin) with the desired concentration of compound added from a concentrated stock dissolved in dimethyl sulfoxide (DMSO) to give a final concentration of 1% DMSO in the assay. cAMP accumulation was measured using the CisBio homogeneous time resolved fluorescence (HTRF) assay kit (#62AM2PEC) following the manufacturer's protocol. Briefly, 10 μl each of the cAMP-HTRF fluorescence detection reagents were added to each well, and the samples were incubated for 40 min. at room temperature. Fluorescence was excited at 320 nm and measured at 665 and 620 nm using the Envision instrument (Perkin Elmer), the fluorescence ratio of 665/620 was calculated and converted to nanomolar concentrations of cAMP in each well by interpolation from a cAMP standard curve. The concentration-response curves and EC50 values were calculated with a four parameter logistic curve fit equation utilizing Excel/XLfit software (Microsoft and IDBS). The EC50 value was calculated as the concentration of agonist which increased the cAMP concentration to a value halfway between the baseline and the maximum.
# Compounds of the present invention were tested in the Tet-inducible cAMP assay described immediately above and the results shown in Table 2 below were obtained.
row,SMILES,EC50
1,CCCc1cnc(N2CCC(Oc3nc4ccc(C5=CCN(S(=O)(=O)CCCCCCP(=O)(OC)OC)CC5)cc4s3)CC2)nc1 [Example 177],9.7 nM

# Same assay, conditions: cAMP accumulation (HTRF), Flp-In-T-Rex-HEK293 cells expressing chimeric human/mouse GPR119, 50 min incubation; read-out: GPR119 EC50
row,SMILES,EC50
1,"CCCS(=O)(=O)N1CC=C(c2ccc3nc(OC4CCN(S(=O)(=O)C5CC5)CC4)sc3c2)CC1 [Example 22, 2-(1-(Cyclopropylsulfonyl)piperidin-4-yloxy)-6-(1-(propylsulfonyl)-1,2,3,6-tetrahydropyridin-4-yl)benzo[d]thiazole]",29.1 nM
2,"CCCc1cnc(N2CCC(Oc3nc4ccc(C5=CCN(S(=O)(=O)CCCCC[N+](CC)(CC)CC)CC5)cc4s3)CC2)nc1 [Example 32, N,N,N-triethyl-5-(4-(2-(1-(5-propylpyrimidin-2-yl)piperidin-4-yloxy)benzo[d]thiazol-6-yl)-5,6-dihydropyridin-1(2H)-ylsulfonyl)pentan-1-aminium bromide]",9.7 nM
3,"CCCc1cnc(N2CCC(Oc3nc4ccc(N5CCC(C(=O)N6CCCC6)CC5)cc4s3)CC2)nc1 [Example 45, (1-(2-(1-(5-Propylpyrimidin-2-yl)piperidin-4-yloxy)benzo[d]thiazol-6-yl)piperidin-4-yl)(pyrrolidin-1-yl)methanone]",463 nM
4,CCCc1cnc(N2CCC(Nc3nc4ccc(C5=CCN(S(=O)(=O)CCC)CC5)cc4s3)CC2)nc1 [Example 53],283 nM
5,CCCc1cnc(N2CCC(Nc3nc4ccc(C5=CCN(S(C)(=O)=O)CC5)cc4s3)CC2)nc1 [Example 54],450 nM
6,CCCc1cnc(N2CCC(Oc3nc4ccc(C5=CCN(c6nc(C)cs6)CC5)cc4s3)CC2)nc1 [Example 60],767 nM
7,CCCc1cnc(N2CCC(Oc3nc4ccc(C5=CCN(c6ncc(C)s6)CC5)cc4s3)CC2)nc1 [Example 61],547 nM
8,CCCc1cnc(N2CCC(Oc3nc4ccc(C5=CCN(C(=O)CC(C)C)CC5)cc4s3)CC2)nc1 [Example 63],292 nM
9,CCCc1cnc(N2CCC(Oc3nc4ccc(C5=CCN(C(=O)c6csnn6)CC5)cc4s3)CC2)nc1 [Example 73],788 nM
10,CCCc1cnc(N2CCC(Oc3nc4ccc(C5=CCN(S(=O)(=O)c6cccc(C(=O)O)c6)CC5)cc4s3)CC2)nc1 [Example 79],713 nM
11,CCCCOC(=O)N1CC=C(c2ccc3nc(OC4CCN(c5ncc(CCC)cn5)CC4)sc3c2)CC1 [Example 81],142 nM
12,CCCc1cnc(N2CC[C@@H](Oc3nc4ccc(C5=CCN(S(C)(=O)=O)CC5)cc4s3)C2)nc1 [Example 84],953 nM
13,CCCS(=O)(=O)N1CC=C(c2ccc3nc(OC4CCN(C(C)=O)CC4)sc3c2)CC1 [Example 92],839 nM
14,CCCS(=O)(=O)N1CC=C(c2ccc3nc(OC4CCN(c5nnc(C)s5)CC4)sc3c2)CC1 [Example 107],21.5 nM
15,CCCS(=O)(=O)N1CC=C(c2ccc3nc(OC4CCN(C(=O)c5csnn5)CC4)sc3c2)CC1 [Example 109],37 nM
16,CCCS(=O)(=O)N1CC=C(c2ccc3nc(OC4CCN(S(C)(=O)=O)CC4)sc3c2)CC1 [Example 111],228 nM
17,CCCc1cnc(N2CC[C@H](Oc3nc4ccc(C5=CCN(S(C)(=O)=O)CC5)cc4s3)C2)nc1 [Example 116],22.1 nM
18,CCCS(=O)(=O)N1CC=C(c2ccc3nc(OCC4[C@H]5CN(Cc6ccccc6)C[C@@H]45)sc3c2)CC1 (some centres unmarked) [Example 127],29 nM
19,CCCc1cnc(N2CCN(c3nc4ccc(C5=CCN(S(=O)(=O)CC(C)C)CC5)cc4s3)CC2)nc1 [Example 133],169 nM
20,CCCc1cnc(N2CCC(Cc3nc4ccc(C5=CCN(S(=O)(=O)CCC(C)(C)O)CC5)cc4o3)CC2)nc1 [Example 141],9.5 nM
21,CCCc1cnc(N2CCC(Cc3nc4ccc(N5CCN(S(=O)(=O)CCC(=O)OC)CC5)cc4o3)CC2)nc1 [Example 144],675 nM
22,CCCc1cnc(N2CCC(Cc3nc4ccc(C5CCN(S(=O)(=O)CCC)CC5)cc4o3)CC2)nc1 [Example 147],49.3 nM
23,CCCNC(=O)N1CC=C(c2ccc3nc(OC4CCN(c5ncc(CCC)cn5)CC4)sc3c2)CC1 [Example 194],378 nM
24,CC(C)(O)CCS(=O)(=O)N1CC=C(c2ccc3nc(OC4CCN(S(=O)(=O)CC(F)(F)F)CC4)sc3c2)CC1 [Example 205],169 nM
25,O=S(=O)(CCCO)N1CCN(c2ccc3nc(OC4CCN(c5ncc(F)cn5)CC4)sc3c2)CC1 [Example 221],13.9 nM
26,CCCc1cnc(N2CCC(Oc3nc4ccc(C5=CCN(S(=O)(=O)CCCC(=O)N(CC)CC)CC5)cc4s3)CC2)nc1 [Example 231],2.3 nM

# The remaining lines, values ahead:
row,EC50,SMILES
1,2.3 nM,"CCCc1cnc(N2CCC(Oc3nc4ccc(C5=CCN(S(=O)(=O)C[C@@H](C)CO)CC5)cc4s3)CC2)nc1 (single isomer, unassigned) [Example 19]"
2,11.1 nM,"CCCc1cnc(N2CCC(Oc3nc4ccc(C5=CCN(S(=O)(=O)CCCO)CC5)cc4s3)CC2)nc1 [Example 3, 3-(4-(2-(1-(5-Propylpyrimidin-2-yl)piperidin-4-yloxy)benzo[d]thiazol-6-yl)-5,6-dihydropyridin-1(2H)-ylsulfonyl)propan-1-ol]"
3,33.9 nM,"CCCc1cnc(N2CCC(Oc3nc4ccc(C5=CCN(S(=O)(=O)CCN6CC(O)C6)CC5)cc4s3)CC2)nc1 [Example 7, 1-(2-(4-(2-(1-(5-Propylpyrimidin-2-yl)piperidin-4-yloxy)benzo[d]thiazol-6-yl)-5,6-dihydropyridin-1(2H)-ylsulfonyl)ethyl)azetidin-3-ol]"
4,25 nM,"CCCc1cnc(N2CCC(Oc3nc4ccc(C5=CCN(S(=O)(=O)CCC(C)(C)OC(=O)CCC(=O)O)CC5)cc4s3)CC2)nc1 [Example 39, 4-(2-methyl-4-(4-(2-(1-(5-Propylpyrimidin-2-yl)piperidin-4-yloxy)benzo[d]thiazol-6-yl)-5,6-dihydropyridin-1(2H)-ylsulfonyl)butan-2-yloxy)-4-oxobutanoic acid]"
5,7.2 nM,"CC(C)c1noc(N2CCC(Oc3nc4ccc(C5=CCN(S(=O)(=O)CCC(C)(C)O)CC5)cc4s3)CC2)n1 [Example 44, 4-(4-(2-(1-(3-Isopropyl-1,2,4-oxadiazol-5-yl)piperidin-4-yloxy)benzo[d]thiazol-6-yl)-5,6-dihydropyridin-1(2H)-ylsulfonyl)-2-methylbutan-2-ol]"
6,7.5 nM,"CN(C)S(=O)(=O)N1CC=C(c2ccc3nc(OC4CCN(c5ncc(F)cn5)CC4)sc3c2)CC1 [Example 49, 4-(2-((1-(5-Fluoropyrimidin-2-yl)piperidin-4-yl)oxy)benzo[d]thiazol-6-yl)-N,N-dimethyl-5,6-dihydropyridine-1(2H)-sulfonamide]"
7,4.4 nM,CCCc1cnc(N2CCC(Oc3nc4ccc(C5=CCN(S(=O)(=O)CCCC(C)(C)O)CC5)cc4s3)CC2)nc1 [Example 114]
8,28.4 nM,CCCc1cnc(N2CC[C@H](Oc3nc4ccc(C5=CCN(S(=O)(=O)CCC)CC5)cc4s3)C2)nc1 [Example 115]
9,3.6 nM,CC(C)(O)CCS(=O)(=O)N1CC=C(c2ccc3nc(OC4CCN(c5ncc(Cl)cn5)CC4)sc3c2)CC1 [Example 118]
10,5 nM,CCCc1cnc(N2CCC(Oc3nc4ccc(C5=CCN(S(=O)(=O)CCC6(O)CC6)CC5)cc4s3)CC2)nc1 [Example 131]
11,55.6 nM,CCCc1cnc(N2CCC(Oc3nc4ccc(C5=CCN(S(=O)(=O)CCN6CCCC6)CC5)cc4s3)CC2)nc1 [Example 134]
12,3 nM,CC(C)(O)CCS(=O)(=O)N1CC=C(c2ccc3nc(OC4CCN(c5nc6ccccc6s5)CC4)sc3c2)CC1 [Example 168]
13,8.3 nM,CC(C)(O)CCS(=O)(=O)N1CCN(c2ccc3nc(OC4CCN(c5ncc(F)cn5)CC4)sc3c2)CC1 [Example 216]
14,0.4 nM,COc1cnc(N2CCC(Oc3nc4ccc(C5=CCN(S(=O)(=O)CCCCO)CC5)cc4s3)CC2)nc1 [Example 241]
